In test [1] the target is T1, Polyadenylate-binding protein 1 (Homo sapiens, UniProt P11940). As to the kind of experiment: MLLE domain peptide-binding blockers, IC50 – biochemical, fluorescence polarization, FITC-PAM2 peptide, dose response (AID 602259). The test is classed as functional. Particulars: read-out: IC50_Mean. For orientation: In fluorescence polarisation assays a small probe gives low polarisation when free and higher when bound to something large.

For test [2], the target named is T2, Caspase-3 (Homo sapiens, UniProt P42574).
T2 sequence (P42574 whole entry): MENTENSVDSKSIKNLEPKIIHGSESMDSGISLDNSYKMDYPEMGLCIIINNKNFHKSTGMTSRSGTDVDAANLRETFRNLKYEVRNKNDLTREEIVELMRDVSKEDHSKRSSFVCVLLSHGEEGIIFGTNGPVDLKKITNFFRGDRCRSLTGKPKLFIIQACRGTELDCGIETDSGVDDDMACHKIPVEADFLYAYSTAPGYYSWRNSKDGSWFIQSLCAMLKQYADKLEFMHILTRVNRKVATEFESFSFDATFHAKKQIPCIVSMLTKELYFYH
As to the kind of experiment: SAR Analysis of small molecule inhibitors of Sentrin-specific proteases (SENPs) using a Caspase-3 Selectivity assay. [Related pubchem assays (depositor defined):AID2540, AID2599, AID434973, AID489001]. The test is classed as functional.

In test [3] the target is T3, Sentrin-specific protease 7 (Homo sapiens, UniProt Q9BQF6).
T3 sequence (Q9BQF6 whole entry): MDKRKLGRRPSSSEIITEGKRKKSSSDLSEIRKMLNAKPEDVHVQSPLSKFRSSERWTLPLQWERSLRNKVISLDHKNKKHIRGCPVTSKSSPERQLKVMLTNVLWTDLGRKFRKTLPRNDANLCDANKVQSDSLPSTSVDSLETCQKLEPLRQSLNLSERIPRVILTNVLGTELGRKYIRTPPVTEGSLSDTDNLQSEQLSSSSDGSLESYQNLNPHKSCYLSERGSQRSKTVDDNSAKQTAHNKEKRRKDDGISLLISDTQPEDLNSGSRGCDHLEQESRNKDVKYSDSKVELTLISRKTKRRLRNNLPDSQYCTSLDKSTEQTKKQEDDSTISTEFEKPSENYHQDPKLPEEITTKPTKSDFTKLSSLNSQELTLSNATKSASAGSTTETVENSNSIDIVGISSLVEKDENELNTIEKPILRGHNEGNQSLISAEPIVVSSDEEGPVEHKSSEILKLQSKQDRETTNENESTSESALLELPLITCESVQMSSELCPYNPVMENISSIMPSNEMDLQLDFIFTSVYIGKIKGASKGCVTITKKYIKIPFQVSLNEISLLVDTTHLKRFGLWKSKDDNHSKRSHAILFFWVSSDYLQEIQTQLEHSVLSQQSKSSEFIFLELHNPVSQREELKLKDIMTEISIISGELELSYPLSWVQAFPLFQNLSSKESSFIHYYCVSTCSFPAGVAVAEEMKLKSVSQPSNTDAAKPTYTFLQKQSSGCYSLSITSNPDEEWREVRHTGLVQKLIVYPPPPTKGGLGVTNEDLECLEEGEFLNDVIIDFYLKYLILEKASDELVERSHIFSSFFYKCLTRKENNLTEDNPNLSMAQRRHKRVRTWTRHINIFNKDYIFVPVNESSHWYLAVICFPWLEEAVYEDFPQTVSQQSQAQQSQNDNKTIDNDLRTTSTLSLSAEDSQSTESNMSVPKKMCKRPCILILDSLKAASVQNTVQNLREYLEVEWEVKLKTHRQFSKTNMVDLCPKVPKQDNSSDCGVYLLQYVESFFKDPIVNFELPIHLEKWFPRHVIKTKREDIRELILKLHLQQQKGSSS
The test is classed as functional.

For test [4], the target named is T2, Caspase-3. The test is classed as functional.
In test [5] the target is T4, Sentrin-specific protease 6 (Homo sapiens, UniProt Q9GZR1).
T4 sequence (Q9GZR1 whole entry): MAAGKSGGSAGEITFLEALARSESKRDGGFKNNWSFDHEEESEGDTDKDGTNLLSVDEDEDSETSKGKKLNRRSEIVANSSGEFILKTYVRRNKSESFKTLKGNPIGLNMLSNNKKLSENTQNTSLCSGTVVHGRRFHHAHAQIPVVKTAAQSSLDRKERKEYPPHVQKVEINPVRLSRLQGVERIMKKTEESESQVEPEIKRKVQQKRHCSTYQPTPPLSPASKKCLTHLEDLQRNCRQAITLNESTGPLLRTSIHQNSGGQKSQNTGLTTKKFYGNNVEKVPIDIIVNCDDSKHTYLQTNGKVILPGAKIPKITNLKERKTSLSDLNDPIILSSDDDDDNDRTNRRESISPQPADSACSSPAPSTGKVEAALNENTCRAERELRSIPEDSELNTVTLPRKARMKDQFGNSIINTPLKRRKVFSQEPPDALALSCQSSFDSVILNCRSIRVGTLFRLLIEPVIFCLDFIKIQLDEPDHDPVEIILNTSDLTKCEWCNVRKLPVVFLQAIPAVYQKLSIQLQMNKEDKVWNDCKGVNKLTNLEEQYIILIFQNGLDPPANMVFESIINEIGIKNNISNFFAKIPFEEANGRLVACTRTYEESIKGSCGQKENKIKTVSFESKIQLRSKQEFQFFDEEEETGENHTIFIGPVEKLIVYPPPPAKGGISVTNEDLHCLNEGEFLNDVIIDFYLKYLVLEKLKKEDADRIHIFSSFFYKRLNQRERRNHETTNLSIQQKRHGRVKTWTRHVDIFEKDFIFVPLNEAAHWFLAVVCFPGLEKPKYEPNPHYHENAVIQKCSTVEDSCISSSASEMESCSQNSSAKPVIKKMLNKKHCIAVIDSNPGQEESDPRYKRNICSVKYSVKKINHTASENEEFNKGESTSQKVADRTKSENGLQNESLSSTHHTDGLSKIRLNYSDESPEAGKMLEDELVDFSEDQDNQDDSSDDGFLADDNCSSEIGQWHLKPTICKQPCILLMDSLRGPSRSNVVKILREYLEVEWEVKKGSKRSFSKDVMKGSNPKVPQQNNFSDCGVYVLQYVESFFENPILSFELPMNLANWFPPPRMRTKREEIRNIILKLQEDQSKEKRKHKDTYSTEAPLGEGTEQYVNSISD
The test is classed as functional.

In test [6] the target is Dual specificity tyrosine-phosphorylation-regulated kinase 1A (Rattus norvegicus, UniProt Q63470). The test is classed as biochemical, Homo sapiens.
Test [7] concerns the target T4, Sentrin-specific protease 6. Briefly: SAR Analysis of small molecule inhibitors of Sentrin-specific protease 6 (SENP6) using a Luminescent assay. [Related pubchem assays (depositor defined):AID2582, AID2599]. The test is classed as functional.
Test [8] deals with T5, Mannose-6-phosphate isomerase (Homo sapiens, UniProt P34949).
T5 sequence (P34949 whole entry): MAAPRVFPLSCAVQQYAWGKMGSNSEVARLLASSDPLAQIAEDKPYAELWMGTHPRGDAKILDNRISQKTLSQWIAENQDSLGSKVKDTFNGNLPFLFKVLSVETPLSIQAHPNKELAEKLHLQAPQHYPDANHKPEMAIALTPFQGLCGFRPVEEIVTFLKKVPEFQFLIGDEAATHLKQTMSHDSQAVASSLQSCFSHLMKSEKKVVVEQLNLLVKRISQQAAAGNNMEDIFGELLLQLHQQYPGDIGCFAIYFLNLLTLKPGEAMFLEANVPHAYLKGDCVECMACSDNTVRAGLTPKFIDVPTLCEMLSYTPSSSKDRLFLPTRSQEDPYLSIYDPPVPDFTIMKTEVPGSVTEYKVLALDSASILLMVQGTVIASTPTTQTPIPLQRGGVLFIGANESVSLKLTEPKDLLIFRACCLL
As to the kind of experiment: MPI inhibition at elevated mannose 6-phosphate – biochemical, fluorescence intensity, high mannose 6-phosphate, primary screen (AID 1220).

Test [9] addresses T6, Sentrin-specific protease 8 (Homo sapiens, UniProt Q96LD8).
T6 sequence (Q96LD8 whole entry): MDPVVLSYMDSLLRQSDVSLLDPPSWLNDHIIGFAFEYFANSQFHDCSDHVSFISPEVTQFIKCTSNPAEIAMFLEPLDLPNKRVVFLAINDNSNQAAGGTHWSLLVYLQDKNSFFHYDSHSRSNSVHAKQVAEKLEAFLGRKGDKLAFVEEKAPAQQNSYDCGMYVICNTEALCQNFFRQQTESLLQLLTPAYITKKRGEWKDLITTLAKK
The test is classed as functional.

The target in test [10] is T6, Sentrin-specific protease 8. As to the kind of experiment: inhibition of human SENP8 cleavage activity – biochemical, luminescence, SAR follow-up (AID 504501). The test is classed as functional.
Test [11] deals with T1, Polyadenylate-binding protein 1. Briefly: MLLE binding blockers, Cy5 peptide tracer – biochemical, fluorescence polarization, Cy5-PAM2 peptide, secondary, miRNA deadenylation inhibitor project, dose response (AID 602260). Particulars: read-out: IC50_Mean. The test is classed as functional.
For test [12], the target named is T3, Sentrin-specific protease 7. Briefly: inhibition of human SENP7 cleavage activity – biochemical, luminescence, SAR follow-up (AID 504497). The test is classed as functional.
Test [13] can be described thus: Fluorescence polarization-based biochemical high throughput dose response assay for activators of the Protein Kinase A-R2B (PKA-R2B) complex. [Related pubchem assays (depositor defined):AID504700, AID504704, AID504796, AID504797].
The next test deals with Genome polyprotein (dengue virus type 2, UniProt P29990). Briefly: flavivirus cap methylation enzyme inhibition – biochemical, confirmation dose response, primary screen (AID 588689). The test is classed as functional.
Test [14] in a line: PKA-R1A complex activators, counter-screen titration – biochemical, Cy5-IP20 fluorescence polarization, 1536-well, triplicate, counter-screen for PKA-R2B activator project, dose response (AID 504896).
The test system of another test is Streptococcus. As to the kind of experiment: GAS UMAA2166 growth inhibition – luminescence, BacTiterGlo, counter-screen for streptokinase expression inhibitor project, dose response (AID 1915).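 Note: potency for reduction of bacterial viability or growth.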 The test is classed as functional, organism-based. On the technique in general: A counterscreen serves to expose hits that act by an unwanted route or on another target.

Test [15] deals with Streptococcus sp. 'group A'. As to the kind of experiment: Streptococcus pyogenes SK(-)GAS viability under kanamycin – luminescence, BacTiterGlo, confirmation, counter-screen for streptokinase expression inhibitor project, dose response (AID 1900). The test is classed as functional, organism-based.
The target of a further test is T7, Bcl-2-like protein 10 (Homo sapiens, UniProt Q9HD36).
T7 sequence (Q9HD36 whole entry): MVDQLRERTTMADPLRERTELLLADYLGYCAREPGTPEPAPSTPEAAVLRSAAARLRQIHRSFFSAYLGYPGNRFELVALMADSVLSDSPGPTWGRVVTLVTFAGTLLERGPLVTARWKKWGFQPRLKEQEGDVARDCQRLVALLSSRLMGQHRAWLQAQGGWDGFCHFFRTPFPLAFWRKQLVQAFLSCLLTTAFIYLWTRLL
Briefly: Isothermal titration calorimetry (ITC) with Bcl-B and compounds active in primary screen. [Related pubchem assays (depositor defined):AID1693]. The test is classed as functional.

The next test addresses T8, Streptokinase A (Streptococcus pyogenes serotype M1, UniProt P10520).
T8 sequence (P10520 whole entry): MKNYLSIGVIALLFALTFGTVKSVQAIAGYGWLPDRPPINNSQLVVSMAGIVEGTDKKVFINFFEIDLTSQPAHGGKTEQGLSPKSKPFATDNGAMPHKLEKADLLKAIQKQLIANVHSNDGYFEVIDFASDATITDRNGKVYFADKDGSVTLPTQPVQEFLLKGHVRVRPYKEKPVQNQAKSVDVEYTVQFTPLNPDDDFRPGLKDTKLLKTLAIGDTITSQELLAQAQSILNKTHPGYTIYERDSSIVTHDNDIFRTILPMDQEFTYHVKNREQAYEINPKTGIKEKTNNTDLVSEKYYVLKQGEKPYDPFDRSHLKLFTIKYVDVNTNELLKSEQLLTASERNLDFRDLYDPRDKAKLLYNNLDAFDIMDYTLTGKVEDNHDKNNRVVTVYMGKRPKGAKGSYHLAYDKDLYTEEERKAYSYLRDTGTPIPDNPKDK
Briefly: viability-normalized secreted streptokinase activity reduction – plasminogen activation absorbance, OD405, dose response (AID 1914).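 Note: secreted streptokinase activity via plasminogen activation per viability signal from cell pellet.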 The test is classed as functional, Streptococcus pyogenes M1 GAS.

The target of test [16] is Dual specificity protein kinase CLK1 (Homo sapiens, UniProt P49759). As to the kind of experiment: inhibition of human CLK1 activity – biochemical, cherry-picked samples, selectivity assay for Dyrk1A inhibitor project, dose response (AID 588811).

This note sets out measurements from ChEMBL document CHEMBL1201862, “PubChem BioAssay data set” (2004).

The term AC50 denotes the midpoint of the concentration-response curve, whichever way the signal moves. What is called EC50 is the concentration giving half of the maximal effect.

Calls of active or inactive are those of the source.

T1 sequence (P11940 whole entry, the tested form may be a part): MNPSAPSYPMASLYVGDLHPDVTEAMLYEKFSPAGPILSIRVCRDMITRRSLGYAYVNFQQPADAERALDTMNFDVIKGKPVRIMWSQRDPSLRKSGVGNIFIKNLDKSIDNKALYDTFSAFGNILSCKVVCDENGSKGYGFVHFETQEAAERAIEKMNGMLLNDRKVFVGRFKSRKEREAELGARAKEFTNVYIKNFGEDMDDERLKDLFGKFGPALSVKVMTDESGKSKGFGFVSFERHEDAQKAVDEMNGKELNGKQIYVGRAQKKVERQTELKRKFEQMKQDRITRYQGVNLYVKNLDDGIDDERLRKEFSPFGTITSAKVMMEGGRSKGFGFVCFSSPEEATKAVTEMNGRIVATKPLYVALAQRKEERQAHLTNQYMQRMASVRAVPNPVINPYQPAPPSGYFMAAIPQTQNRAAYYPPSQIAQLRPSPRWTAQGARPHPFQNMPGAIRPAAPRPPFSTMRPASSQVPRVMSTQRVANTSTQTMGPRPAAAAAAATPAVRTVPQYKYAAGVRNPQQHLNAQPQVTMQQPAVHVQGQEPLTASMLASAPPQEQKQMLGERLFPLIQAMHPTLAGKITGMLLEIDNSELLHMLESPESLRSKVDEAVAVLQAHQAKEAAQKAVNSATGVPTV
Genome polyprotein, sequence (P29990 2492-3391 limits assumed): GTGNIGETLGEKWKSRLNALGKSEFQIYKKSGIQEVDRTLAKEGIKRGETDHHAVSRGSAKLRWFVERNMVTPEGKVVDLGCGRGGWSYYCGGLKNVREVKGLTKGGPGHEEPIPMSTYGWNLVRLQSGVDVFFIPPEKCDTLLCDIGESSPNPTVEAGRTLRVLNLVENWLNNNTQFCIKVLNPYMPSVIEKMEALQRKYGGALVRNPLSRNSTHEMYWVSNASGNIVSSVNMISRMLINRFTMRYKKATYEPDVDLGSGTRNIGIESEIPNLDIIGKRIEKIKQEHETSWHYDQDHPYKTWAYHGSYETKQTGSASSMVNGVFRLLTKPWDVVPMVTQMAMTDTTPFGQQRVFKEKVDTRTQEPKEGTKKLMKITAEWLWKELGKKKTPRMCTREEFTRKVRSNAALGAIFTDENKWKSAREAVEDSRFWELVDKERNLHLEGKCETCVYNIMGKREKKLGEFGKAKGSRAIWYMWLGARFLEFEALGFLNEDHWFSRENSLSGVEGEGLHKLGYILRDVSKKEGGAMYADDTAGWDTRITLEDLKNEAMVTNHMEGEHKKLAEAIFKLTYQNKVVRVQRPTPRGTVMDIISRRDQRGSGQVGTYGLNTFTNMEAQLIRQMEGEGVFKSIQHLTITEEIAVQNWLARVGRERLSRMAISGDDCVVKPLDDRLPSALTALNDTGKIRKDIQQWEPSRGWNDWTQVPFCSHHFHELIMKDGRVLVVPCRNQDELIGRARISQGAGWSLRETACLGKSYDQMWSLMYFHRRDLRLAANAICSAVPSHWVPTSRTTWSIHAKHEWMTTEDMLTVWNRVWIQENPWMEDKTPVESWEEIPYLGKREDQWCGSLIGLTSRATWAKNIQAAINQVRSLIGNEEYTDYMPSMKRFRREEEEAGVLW
Dual specificity protein kinase CLK1, sequence (P49759 whole entry): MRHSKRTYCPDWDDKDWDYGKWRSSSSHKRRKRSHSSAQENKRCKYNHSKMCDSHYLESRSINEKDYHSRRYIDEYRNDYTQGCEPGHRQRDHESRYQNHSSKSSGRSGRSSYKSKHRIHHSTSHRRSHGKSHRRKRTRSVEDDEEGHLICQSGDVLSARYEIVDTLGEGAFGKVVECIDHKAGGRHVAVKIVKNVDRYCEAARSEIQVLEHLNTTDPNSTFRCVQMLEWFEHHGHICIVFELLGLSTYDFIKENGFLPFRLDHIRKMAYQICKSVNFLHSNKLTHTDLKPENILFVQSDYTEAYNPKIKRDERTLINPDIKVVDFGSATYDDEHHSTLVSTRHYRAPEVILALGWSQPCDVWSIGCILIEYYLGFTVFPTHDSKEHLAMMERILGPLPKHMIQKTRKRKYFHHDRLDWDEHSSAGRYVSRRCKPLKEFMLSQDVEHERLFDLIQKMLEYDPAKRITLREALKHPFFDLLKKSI

For `COc1ccc2c(C#N)c3ccccn3c2c1`, the IC50 in [1] is 21.2 µM (inactive); on Caspase-3 [2] it was 65.4 µM (active); in test [3] it was > 100 µM (inactive); at Caspase-3 [4], 54.8 µM (active); in test [5] it was 16.6 µM (active); in test [7], > 99 µM (inactive). The IC50 in [8] is > 50 µM (not active); in test [9], > 100 µM (inactive); in test [10], > 99 µM (inactive); in test [11], > 66 µM (inactive); in test [12] it was > 99 µM (inactive). Moreover, in [6], the AC50 is 0.242 µM (active).
`CN(C)c1ccc(N=Nc2ccc(S(=O)(=O)O)cc2)c2ccccc12`: the EC50 in test [13] is 69 µM (inactive); in test [14] it was > 114 µM (inactive). In addition, the IC50 on Genome polyprotein was 46.2 µM (active).
As for `O=c1c2c(n3nnnc3n1Cc1ccccc1)-c1ccccc1CC21CCCC1`, the values for the EC50 (with Streptococcus; in [15]; at Streptokinase A) were > 150 µM (not active), 26.3 µM (active) and 6.74 µM (active), respectively. The IC50 at Bcl-2-like protein 10 is 0.2 µM (active).
For `CSCC(=O)Nc1nc(-c2ccc3c(c2)OCCO3)cs1`, the AC50 in [16] was 8.63 µM (active).
